Data on 2 molecules can be found in ChEMBL document CHEMBL4507319 (2021).

Assay [1] has as its target Ephrin type-A receptor 2 (Homo sapiens) (UniProt P29317). Nature of the assay: EphA2(h) Eurofins kinase panel. Particulars: Compound concentration 1.0 uM.
The target of assay [2] is T1, Ephrin type-B receptor 3 (Homo sapiens) (UniProt P54753).
T1 sequence (whole entry): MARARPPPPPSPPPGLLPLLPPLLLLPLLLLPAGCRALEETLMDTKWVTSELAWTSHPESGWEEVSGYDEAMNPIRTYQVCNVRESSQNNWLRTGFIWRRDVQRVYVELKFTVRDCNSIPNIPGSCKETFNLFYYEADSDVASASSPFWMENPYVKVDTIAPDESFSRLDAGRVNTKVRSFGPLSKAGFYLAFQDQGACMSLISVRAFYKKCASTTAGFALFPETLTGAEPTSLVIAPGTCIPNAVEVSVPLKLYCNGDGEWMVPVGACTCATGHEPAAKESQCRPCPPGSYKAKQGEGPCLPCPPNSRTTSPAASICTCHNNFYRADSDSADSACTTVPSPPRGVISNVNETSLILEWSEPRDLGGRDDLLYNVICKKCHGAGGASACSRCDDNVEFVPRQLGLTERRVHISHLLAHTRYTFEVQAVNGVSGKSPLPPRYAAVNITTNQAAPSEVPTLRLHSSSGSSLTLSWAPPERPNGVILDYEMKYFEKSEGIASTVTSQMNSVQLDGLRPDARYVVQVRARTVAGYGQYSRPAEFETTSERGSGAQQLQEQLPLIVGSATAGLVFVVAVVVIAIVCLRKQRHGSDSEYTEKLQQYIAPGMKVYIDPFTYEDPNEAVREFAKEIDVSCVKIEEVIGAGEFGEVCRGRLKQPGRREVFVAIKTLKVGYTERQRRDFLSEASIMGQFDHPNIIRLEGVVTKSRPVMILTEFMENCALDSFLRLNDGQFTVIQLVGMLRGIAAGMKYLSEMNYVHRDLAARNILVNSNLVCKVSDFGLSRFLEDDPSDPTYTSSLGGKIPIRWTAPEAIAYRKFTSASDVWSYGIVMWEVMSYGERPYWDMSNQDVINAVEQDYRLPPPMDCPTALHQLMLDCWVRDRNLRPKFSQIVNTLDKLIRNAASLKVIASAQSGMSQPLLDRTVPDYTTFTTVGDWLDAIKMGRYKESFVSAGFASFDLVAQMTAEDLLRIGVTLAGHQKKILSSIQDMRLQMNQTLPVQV
Nature of the assay: EphB3(h) Eurofins kinase panel. The conditions noted are these: Compound concentration 1.0 uM.

For assay [3], the target named is Tyrosine-protein kinase Fgr (Homo sapiens) (UniProt P09769). Description: Fgr(h) Eurofins kinase panel. The conditions noted are these: Compound concentration 1.0 uM.
Assay [4] concerns the target Ribosomal protein S6 kinase alpha-4 (Homo sapiens) (UniProt O75676). Description: MSK2(h) Eurofins kinase panel. Particulars: Compound concentration 1.0 uM.
The target in assay [5] is RAC-gamma serine/threonine-protein kinase (Homo sapiens) (UniProt Q9Y243). Nature of the assay: PKBgamma (h) Eurofins kinase panel. The conditions noted are these: Compound concentration 1.0 uM.
Assay [6] concerns the target T2, Serine/threonine-protein kinase Sgk1 (Homo sapiens) (UniProt O00141).
T2 sequence (whole entry): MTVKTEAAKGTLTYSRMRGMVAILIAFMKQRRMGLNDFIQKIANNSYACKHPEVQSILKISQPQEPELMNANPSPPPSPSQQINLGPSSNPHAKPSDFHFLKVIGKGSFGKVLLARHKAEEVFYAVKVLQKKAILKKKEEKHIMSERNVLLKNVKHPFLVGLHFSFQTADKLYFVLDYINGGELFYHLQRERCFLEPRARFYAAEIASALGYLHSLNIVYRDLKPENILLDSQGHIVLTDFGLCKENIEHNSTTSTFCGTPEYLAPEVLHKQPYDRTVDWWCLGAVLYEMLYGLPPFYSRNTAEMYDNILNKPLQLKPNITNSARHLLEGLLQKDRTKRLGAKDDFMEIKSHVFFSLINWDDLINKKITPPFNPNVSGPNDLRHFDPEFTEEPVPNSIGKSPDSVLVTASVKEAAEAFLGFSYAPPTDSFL
Nature of the assay: SGK(h) Eurofins kinase panel. Particulars: Compound concentration 1.0 uM.

Assay [7] addresses High affinity nerve growth factor receptor (Homo sapiens) (UniProt P04629). Nature of the assay: TrkA(h) Eurofins kinase panel. Particulars: Compound concentration 1.0 uM.
Assay [8] deals with T3, Serine/threonine-protein kinase ULK1 (Homo sapiens) (UniProt O75385).
T3 sequence (whole entry): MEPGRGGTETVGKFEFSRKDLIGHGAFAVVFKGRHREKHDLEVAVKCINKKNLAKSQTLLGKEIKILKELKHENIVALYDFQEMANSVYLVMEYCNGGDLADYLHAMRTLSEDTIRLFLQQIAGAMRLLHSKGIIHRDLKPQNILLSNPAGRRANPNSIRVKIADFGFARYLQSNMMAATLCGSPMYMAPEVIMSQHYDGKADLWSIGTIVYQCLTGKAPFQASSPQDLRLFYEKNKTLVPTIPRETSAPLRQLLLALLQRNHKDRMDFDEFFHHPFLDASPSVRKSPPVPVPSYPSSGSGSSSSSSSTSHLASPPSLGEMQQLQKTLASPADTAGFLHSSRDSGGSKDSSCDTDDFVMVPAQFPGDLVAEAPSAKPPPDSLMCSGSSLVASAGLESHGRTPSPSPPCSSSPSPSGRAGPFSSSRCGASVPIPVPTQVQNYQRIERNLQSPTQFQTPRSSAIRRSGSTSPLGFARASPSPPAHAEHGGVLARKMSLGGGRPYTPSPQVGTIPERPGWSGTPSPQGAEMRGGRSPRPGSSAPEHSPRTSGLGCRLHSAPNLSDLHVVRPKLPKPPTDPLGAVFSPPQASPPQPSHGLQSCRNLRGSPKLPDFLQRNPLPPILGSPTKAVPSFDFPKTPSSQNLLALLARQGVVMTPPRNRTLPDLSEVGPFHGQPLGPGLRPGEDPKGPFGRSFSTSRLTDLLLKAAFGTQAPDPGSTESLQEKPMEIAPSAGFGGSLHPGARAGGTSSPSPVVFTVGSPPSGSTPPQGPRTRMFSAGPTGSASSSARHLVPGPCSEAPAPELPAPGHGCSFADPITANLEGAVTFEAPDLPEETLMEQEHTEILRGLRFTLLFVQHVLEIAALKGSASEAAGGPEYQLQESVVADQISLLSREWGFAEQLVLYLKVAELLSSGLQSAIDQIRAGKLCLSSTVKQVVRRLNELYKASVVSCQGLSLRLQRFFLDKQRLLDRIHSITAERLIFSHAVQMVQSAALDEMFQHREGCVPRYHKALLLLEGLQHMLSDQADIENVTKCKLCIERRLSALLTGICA
Description: ULK1(h) Eurofins kinase panel. The conditions noted are these: Compound concentration 1.0 uM.

Assay [9] addresses Serine/threonine-protein kinase WNK2 (Homo sapiens) (UniProt Q9Y3S1). Nature of the assay: WNK2(h) Eurofins kinase panel. Particulars: Compound concentration 1.0 uM.
The next assay concerns IMR-32. Description: IMR-32 cell line Proliferation assay. Format: functional, Homo sapiens. Particulars: time 6 day.
In assay [10] the target is Beta-2 adrenergic receptor (Homo sapiens) (UniProt P07550). Particulars: Compound concentration 10.0 uM.

Broadly, the inhibition is the change of the read-out against control, counted positive when it falls.

Serine/threonine-protein kinase WNK2 (Homo sapiens), sequence (Q9Y3S1 whole entry): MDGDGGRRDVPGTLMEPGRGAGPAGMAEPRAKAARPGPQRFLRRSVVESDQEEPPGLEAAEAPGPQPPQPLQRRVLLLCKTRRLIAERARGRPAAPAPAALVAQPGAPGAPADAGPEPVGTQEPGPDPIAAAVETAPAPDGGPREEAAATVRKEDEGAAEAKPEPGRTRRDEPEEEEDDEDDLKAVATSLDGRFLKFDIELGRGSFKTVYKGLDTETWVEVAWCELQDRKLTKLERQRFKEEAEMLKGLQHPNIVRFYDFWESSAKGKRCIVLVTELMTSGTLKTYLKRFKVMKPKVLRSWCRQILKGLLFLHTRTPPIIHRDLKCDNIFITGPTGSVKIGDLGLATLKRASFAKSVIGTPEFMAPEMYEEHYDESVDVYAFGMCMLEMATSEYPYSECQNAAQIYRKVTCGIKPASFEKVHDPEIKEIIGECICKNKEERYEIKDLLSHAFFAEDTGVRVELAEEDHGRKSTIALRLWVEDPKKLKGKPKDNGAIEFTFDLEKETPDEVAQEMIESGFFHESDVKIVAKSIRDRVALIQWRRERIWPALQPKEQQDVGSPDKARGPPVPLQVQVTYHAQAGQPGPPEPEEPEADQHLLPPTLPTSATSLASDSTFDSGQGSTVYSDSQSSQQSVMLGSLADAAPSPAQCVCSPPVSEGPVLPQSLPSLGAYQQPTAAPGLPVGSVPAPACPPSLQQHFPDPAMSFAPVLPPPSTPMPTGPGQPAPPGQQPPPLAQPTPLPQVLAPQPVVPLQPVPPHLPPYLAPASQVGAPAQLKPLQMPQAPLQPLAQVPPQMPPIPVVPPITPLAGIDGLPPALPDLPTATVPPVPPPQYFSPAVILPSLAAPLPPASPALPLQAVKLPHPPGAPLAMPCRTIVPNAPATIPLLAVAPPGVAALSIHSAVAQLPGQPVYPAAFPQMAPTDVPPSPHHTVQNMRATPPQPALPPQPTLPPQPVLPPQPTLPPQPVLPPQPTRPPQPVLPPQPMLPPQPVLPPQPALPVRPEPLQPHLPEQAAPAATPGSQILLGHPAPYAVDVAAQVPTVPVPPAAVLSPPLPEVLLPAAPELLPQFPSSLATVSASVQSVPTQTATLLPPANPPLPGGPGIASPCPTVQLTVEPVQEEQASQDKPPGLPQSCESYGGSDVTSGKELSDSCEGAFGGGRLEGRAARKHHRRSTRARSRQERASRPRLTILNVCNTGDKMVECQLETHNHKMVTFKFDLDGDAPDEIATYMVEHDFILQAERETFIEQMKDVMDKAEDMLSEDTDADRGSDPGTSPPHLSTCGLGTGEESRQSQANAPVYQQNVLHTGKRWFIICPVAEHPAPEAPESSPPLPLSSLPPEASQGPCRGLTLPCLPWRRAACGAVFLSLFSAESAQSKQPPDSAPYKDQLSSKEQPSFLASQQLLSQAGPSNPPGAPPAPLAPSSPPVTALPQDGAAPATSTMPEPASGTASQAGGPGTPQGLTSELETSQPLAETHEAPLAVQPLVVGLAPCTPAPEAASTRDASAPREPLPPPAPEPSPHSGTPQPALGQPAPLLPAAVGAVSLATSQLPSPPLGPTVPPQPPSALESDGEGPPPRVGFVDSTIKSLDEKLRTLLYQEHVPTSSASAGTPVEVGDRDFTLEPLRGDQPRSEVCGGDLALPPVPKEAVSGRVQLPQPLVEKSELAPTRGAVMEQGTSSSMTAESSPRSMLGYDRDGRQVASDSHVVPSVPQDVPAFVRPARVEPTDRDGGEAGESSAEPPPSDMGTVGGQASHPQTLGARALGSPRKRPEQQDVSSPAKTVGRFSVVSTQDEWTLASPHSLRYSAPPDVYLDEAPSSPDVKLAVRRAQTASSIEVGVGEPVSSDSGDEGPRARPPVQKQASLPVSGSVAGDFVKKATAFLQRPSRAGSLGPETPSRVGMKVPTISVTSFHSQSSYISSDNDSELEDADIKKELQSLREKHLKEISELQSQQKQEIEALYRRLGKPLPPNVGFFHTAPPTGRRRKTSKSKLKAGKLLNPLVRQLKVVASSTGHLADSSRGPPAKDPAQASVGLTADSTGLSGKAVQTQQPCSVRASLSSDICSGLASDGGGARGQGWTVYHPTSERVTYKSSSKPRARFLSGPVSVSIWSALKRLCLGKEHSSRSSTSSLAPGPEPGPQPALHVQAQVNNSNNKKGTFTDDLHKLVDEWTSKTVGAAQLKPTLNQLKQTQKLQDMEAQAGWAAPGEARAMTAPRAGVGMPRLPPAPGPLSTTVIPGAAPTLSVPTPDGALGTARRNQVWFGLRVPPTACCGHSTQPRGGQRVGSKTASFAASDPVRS
Beta-2 adrenergic receptor (Homo sapiens), sequence (P07550 whole entry, looked up): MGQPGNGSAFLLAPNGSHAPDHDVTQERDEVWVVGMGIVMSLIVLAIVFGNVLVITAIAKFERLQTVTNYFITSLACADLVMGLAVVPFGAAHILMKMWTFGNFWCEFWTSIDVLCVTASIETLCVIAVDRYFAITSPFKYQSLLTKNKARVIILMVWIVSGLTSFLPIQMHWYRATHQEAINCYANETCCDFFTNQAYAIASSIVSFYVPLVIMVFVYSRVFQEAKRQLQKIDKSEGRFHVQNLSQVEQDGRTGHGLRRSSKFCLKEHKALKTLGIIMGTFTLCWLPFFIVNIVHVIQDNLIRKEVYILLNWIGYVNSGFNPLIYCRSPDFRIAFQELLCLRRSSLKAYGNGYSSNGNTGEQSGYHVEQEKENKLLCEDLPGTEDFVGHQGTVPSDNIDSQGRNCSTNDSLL
High affinity nerve growth factor receptor (Homo sapiens), sequence (P04629 33-796 limits assumed): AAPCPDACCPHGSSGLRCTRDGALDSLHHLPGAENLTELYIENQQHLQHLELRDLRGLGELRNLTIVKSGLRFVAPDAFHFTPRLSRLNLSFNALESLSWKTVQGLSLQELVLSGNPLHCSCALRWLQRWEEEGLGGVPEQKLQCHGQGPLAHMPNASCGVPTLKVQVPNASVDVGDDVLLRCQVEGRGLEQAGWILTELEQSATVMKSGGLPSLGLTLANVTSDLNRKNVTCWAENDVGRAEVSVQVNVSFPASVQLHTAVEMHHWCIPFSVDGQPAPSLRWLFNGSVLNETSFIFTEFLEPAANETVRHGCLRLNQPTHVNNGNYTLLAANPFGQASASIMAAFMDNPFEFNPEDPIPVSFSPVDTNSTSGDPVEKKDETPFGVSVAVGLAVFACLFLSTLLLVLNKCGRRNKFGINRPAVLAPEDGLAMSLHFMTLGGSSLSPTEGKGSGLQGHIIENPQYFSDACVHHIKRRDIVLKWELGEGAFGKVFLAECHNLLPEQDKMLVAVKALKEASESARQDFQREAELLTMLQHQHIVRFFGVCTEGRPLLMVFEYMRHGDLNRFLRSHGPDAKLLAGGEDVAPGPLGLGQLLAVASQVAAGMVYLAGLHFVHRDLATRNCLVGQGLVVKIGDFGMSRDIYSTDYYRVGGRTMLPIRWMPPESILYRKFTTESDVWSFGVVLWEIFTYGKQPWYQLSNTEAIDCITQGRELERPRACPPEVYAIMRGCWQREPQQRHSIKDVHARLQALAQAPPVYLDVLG
Ephrin type-A receptor 2 (Homo sapiens), sequence (P29317 whole entry): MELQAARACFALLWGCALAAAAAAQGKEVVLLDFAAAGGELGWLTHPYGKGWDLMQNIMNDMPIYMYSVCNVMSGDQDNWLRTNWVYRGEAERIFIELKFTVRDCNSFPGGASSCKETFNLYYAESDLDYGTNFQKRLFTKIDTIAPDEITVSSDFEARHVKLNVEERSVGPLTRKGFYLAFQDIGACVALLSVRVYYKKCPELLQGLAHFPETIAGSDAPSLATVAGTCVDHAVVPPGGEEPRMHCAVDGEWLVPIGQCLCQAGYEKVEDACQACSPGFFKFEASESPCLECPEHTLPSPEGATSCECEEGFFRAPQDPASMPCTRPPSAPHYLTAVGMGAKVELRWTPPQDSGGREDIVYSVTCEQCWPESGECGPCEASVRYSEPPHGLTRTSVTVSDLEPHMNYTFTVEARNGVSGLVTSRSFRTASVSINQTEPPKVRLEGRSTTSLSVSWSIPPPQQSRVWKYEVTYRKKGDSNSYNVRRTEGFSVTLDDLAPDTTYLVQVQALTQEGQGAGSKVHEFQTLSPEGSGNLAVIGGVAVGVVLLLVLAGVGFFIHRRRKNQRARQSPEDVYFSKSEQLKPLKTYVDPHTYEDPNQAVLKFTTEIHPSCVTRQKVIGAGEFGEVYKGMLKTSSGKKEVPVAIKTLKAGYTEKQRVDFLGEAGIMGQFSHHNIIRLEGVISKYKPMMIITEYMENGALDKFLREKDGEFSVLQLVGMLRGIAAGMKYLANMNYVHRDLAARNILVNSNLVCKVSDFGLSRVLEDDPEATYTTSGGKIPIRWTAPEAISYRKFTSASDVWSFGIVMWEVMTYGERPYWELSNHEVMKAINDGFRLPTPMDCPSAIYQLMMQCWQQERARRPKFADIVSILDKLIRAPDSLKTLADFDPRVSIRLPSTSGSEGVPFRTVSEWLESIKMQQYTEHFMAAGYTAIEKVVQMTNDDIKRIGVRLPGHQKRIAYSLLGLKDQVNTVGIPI
Tyrosine-protein kinase Fgr (Homo sapiens), sequence (P09769 2-529 limits assumed): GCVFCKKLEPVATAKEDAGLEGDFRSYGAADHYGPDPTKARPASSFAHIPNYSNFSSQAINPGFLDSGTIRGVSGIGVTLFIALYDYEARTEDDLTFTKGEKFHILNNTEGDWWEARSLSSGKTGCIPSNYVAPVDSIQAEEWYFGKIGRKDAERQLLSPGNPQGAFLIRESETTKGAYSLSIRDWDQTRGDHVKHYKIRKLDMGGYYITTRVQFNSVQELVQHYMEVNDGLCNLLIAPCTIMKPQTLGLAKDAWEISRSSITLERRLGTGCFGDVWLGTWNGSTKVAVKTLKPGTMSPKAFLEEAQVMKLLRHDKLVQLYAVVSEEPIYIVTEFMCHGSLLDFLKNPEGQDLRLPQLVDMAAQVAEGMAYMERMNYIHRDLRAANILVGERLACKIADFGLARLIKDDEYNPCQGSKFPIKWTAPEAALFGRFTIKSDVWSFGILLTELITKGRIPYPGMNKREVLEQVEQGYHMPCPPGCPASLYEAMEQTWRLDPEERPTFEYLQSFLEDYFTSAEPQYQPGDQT

Turning to `CCc1ccccc1C(=O)Nc1n[nH]c2c(C)c(F)c(C3C(C#N)=C(C)N(C)C(C)=C3C#N)cc12` [BAY-3827], the % residual kinase activity was 88% in assay [1]; 109% in assay [2]; 93% in [3]; 27% in assay [4]; 78% in assay [5]; 79% in assay [6]. The % residual kinase activity in assay [7] was 60%; in assay [8] it was 26%; in assay [9], 87%. In the assay on IMR-32, the “Cell Proliferation IC50” value is over 11.5 µM.
Take `CC1=C(C#N)C(c2ccc3c(c2)c(NC(=O)c2ccccc2C)nn3C)C(C#N)=C(C)N1` [BAY-974]: in assay [10], the inhibition is -7.25%.
